The values below come from PubChem BioAssay (NCI).

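Interpolation was linear, between the two tested concentrations surrounding the appropriate level; five concentrations were tested over 48 hours in 96-well plates. TGI: total growth inhibition.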 A value given as a limit tells only on which side of the number the result lay.

Among the test systems are DMS 273 small cell lung; SN12K1 renal; M19-MEL melanoma; SNB-78 CNS; HOP-18 NSCLC; KM20L2 colon; P388 leukemia; DLD-1 colon; MDA-N; XF 498 CNS; RXF-631 renal.
Common to all, as to assay: NCI tumour cell line growth inhibition, 48 h

As for `CO[C@H]1Nc2c(ccc(C)c2O)C(=O)N2C=C(/C=C/C(N)=O)C[C@@H]12`, the TGI in the assay with DMS 273 small cell lung is 0.118 µM; with SN12K1 renal, 0.0473 µM; in the assay on M19-MEL melanoma, 0.0939 µM; with SNB-78 CNS, 18.4 µM; in the assay with HOP-18 NSCLC it was > 100 µM; with KM20L2 colon, 0.891 µM. For the same compound, the results for the TGI in the assay on P388 leukemia, in the assay with DLD-1 colon and in the assay with MDA-N were 0.283 µM, > 47.6 µM and 0.0283 µM, respectively.

In the case of `CCNC(=O)/C(=C/c1ccc(OC)cc1)c1cc(OC)c(OC)c(OC)c1`, the TGI with DMS 273 small cell lung was > 100 µM; with XF 498 CNS it was 85.3 µM; in the assay on RXF-631 renal it was > 100 µM; with M19-MEL melanoma it was > 100 µM; in the assay on SNB-78 CNS, > 100 µM; in the assay with HOP-18 NSCLC, > 100 µM. Moreover, the TGI was 13.5 µM with KM20L2 colon, > 100 µM with DLD-1 colon and 4.26 µM in the assay on MDA-N.
